Experimental data from patent US8193171B2, “13,13-dimethyl-des-C,D analogs of 1α,25-dihydroxy-19-nor-vitamin D3 compounds and topical composition dosage forms and methods of treating skin conditions thereof” (Wisconsin Alumni Research Foundation, priority 2008, dated 2012).

Tests used:
[1] = tested on: bone calcium mobilization; assay: Bone calcium mobilization (serum calcium); type: in vivo, rat; conditions: Sprague-Dawley rats, four consecutive intraperitoneal doses
Experimental: (§1) Intestinal Calcium Transport and Bone Calcium Mobilization Activity. Male, weanling Sprague-Dawley rats were placed on Diet 11 (0.47% Ca) diet+AEK oil for one week followed by Diet 11 (0.02% Ca)+AEK oil for 3 weeks. The rats were then switched to a diet containing 0.47% Ca for one week followed by two weeks on a diet containing 0.02% Ca. Dose administration began during the last week on 0.02% calcium diet. Four consecutive intraperitoneal doses were given approximately 24 hours apart. Twenty-four hours after the last dose, blood was collected from the severed neck and the concentration of serum calcium determined as a measure of bone calcium mobilization. The first 10 cm of the intestine was also collected for intestinal calcium transport analysis using the everted gut sac method.

[2] = tested on: 24-hydroxylase (24OHase) gene promoter; assay: In vitro 24-OHase transcription assay (luciferase reporter in ROS 17/2.8 bone cells); type: cell-based; conditions: ROS 17/2.8 cells, sixteen hours after dosing
Experimental: In vitro Transcription Assay. Transcription activity was measured in ROS 17/2.8 (bone) cells that were stably transfected with a 24-hydroxylase (24OHase) gene promoter upstream of a luciferase reporter gene. (Arbour et al., 1998). Cells were given a range of doses. Sixteen hours after dosing the cells were harvested and luciferase activities were measured using a luminometer. RLU=relative luciferase units.

[3] = tested on: intestinal calcium transport; assay: Intestinal calcium transport (everted gut sac method); type: in vivo, rat; conditions: Sprague-Dawley rats, four consecutive intraperitoneal doses
Experimental: as §1

[4] = tested on: Human promyelocytic leukemia (HL-60) cells; assay: HL-60 cell differentiation (nitro blue tetrazolium reduction); type: cell-based; conditions: four days of treatment
Experimental: HL-60 Differentiation. Test Material. Study Drugs. The study drugs were dissolved in ethanol and the concentrations determined using UV spectrophotometry. Serial dilutions were prepared so that a range of drug concentrations could be tested without changing the final concentration of ethanol (<0.2%) present in the cell cultures.
Cells. Human promyelocytic leukemia (HL-60) cells were grown in RPMI-1640 medium containing 10% fetal bovine serum. The cells were incubated at 37° C. in the presence of 5% CO2.
Assay Conditions. HL-60 cells were plated at 1.2×10^5 cells/ml. Eighteen hours after plating, cells in duplicate were treated with drug. Four days later, the cells were harvested and a nitro blue tetrazolium reduction assay was performed. (Collins et al., 1979, J. Exp. Med. 149:969-974). The percentage of differentiated cells was determined by counting a total of 200 cells and recording the number that contained intracellular black-blue formazan deposits. Verification of differentiation to monocytic cells was determined by measuring phagocytic activity (data not shown).

[5] = biological target: T1, Full-length recombinant rat receptor (vitamin D receptor, VDR) (Rattus norvegicus, UniProt P13053); assay: Competitive vitamin D receptor binding; conditions: relative to 1.25(OH)2D3; radioligand 3H-1.25(OH)2D3 1 nM
T1 construct: Full-length recombinant rat receptor was expressed in E. coli; histidine tag (C); made in house; host or cells: E. coli BL21(DE3) Codon Plus RIL
T1 sequence (P13053 1-423): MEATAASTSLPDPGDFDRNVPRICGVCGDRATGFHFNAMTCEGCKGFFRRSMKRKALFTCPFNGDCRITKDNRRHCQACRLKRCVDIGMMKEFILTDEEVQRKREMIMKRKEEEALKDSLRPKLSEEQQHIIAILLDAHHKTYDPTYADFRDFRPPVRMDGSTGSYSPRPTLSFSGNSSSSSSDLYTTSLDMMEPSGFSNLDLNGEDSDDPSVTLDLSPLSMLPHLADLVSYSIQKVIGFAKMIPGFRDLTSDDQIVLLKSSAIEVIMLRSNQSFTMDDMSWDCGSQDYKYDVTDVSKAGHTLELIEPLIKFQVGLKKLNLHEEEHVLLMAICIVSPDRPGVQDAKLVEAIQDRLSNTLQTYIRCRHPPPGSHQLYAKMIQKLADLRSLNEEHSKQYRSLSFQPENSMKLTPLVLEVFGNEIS
Experimental: Experimental Methods. […] The first system was a nickel affinity resin that utilizes the C-terminal histidine tag on this protein. The protein that was eluted from this resin was further purified using ion exchange chromatography (S-Sepharose Fast Flow). Aliquots of the purified protein were quick frozen in liquid nitrogen and stored at −80° C. until use. For use in binding assays, the protein was diluted in TEDK50 (50 mM Tris, 1.5 mM EDTA, pH 7.4, 5 mM DTT, 150 mM KCl) with 0.1% Chaps detergent. The receptor protein and ligand concentration was optimized such that no more than 20% of the added radiolabeled ligand was bound to the receptor.
Assay Conditions. […] The hydroxylapaptite was collected by centrifugation and then washed three times with Tris-EDTA buffer (50 mM Tris, 1.5 mM EDTA, pH 7.4) containing 0.5% Titron X-100. After the final wash, the pellets were transferred to scintillation vials containing 4 ml of Biosafe II scintillation cocktail, mixed and placed in a scintillation counter. Total binding was determined from the tubes containing only radiolabeled ligand.

Rhino mouse comedones = assay: Comedolytic effect of daily topical application in the Rhino mouse; type: in vivo; conditions: for Comedone Area (% Vehicle): Rhino mouse, topical daily ca. 3 weeks, 70 vol % ethanol / 30 vol % propylene glycol, mean ± SEM, N 6
Source text: Rhino mice were used to topically test the compounds and compositions of the invention. The Rhino mouse is a well-established animal model used to study the comedolytic effects of anti-acne agents including retinoids. (See Boulcier M et al., 1990, Experimental Models in Skin Pharmacology, In Pharmacological Reviews 42:127-154). The Rhino mouse model was used to study the therapeutic potential of 13Me2.
Animals and dose administration. Rhino mice were enrolled in the study at 6-8 weeks of age and were dosed daily via the topical route. The mice were weighed three times per week and doses were adjusted weekly based on body weight. The topical formulations were applied to the back of the animal in a maximum volume of 100 μL. The topical formulations were made by mixing the 13Me2 with a topical carrier comprising 70 vol % ethanol and 30 vol % propylene glycol, as indicated. The topical vehicle control was the vehicle carrier solution matched to the formulation containing API and vehicle carrier. Mice were sacrificed 72 hours after the final topical dose. At sacrifice, the dorsal skin was collected for histology studies.
Comedolytic effect. The extent of the comedolytic effect (i.e., efficacy) was assessed by measuring the average area of the comedones, whereby the smaller the area, the larger the effect. The comedone area was determined by histological analysis of tissue sections based upon lab methods. Skin was fixed overnight in 4% paraformaldehyde at 4° C. with gentle agitation, and dehydrated the next day into 100% methanol.
Samples were embedded in paraffin and a total of nine 10μ sections 150μ apart were prepared from each Rhino mouse. Five of the nine sections were digitally imaged (6× magnification) for comedone analysis using Metamorph Imaging Software (trace function). The perimeter of each comedone on the images taken from the 5 sections was then traced using a Wacom Intuos 3 Graphics Tablet interfaced with the software.
The number of pixels comprising the area of each individual comedone was obtained, and the mean number of pixels per comedone was obtained for each Rhino mouse. For comedones that were completely healed (area=0) a pixel value approaching 0 (<10) was scored. The individual comedone area average for each mouse was then used to calculate the treatment group mean. Results in the figures are expressed in terms of mean±standard error of the mean.
Preparation of topical formulations containing 13Me2. A concentrated ethanolic stock of 13Me2 was diluted to a final concentration containing 30 vol % propylene glycol and 70 vol % ethanol as the excipient carrier system. The mixture was thoroughly mixed. The topical dosing formulation delivered a predetermined dosing amount of drug on a per kilogram body weight basis. […]

Row | VDR binding affinity compared to the native hormone [5] | Compound | Activity on bone calcium mobilization [1] | 24-OHase transcription activity relative to 1.25(OH)2D3 [2] | Activity on intestinal calcium transport [3] | HL-60 differentiation activity relative to 1.25(OH)2D3 [4] | Comedone area relative to the vehicle-treated group (FIG. 6) (Rhino mouse comedones; Rhino mice, topical 217 nmole/kgBW/day, 3 weeks daily) | Comedone area relative to the vehicle-treated group (FIG. 7) (Rhino mouse comedones; Rhino mice, topical 69 and 217 nmole/kgBW/day, 3 weeks daily) | Comedone Area (% Vehicle) (Rhino mouse comedones; dose 217 nmol/kg) | Comedone Area (% Vehicle) (Rhino mouse comedones; dose 6.0 nmol/kg)
1 | one log less affinity | C=C1[C@H](O)CC(=C/C=C/CC(C)(C)C[C@@H](C)CCCC(C)(C)O)C[C@H]1O [13Me2, (1R,3R)-5-[(E)-(S)-11′-hydroxy-5′,5′,7′,11′-tetramethyl-dodec-2′-enylidene]-2-methylene-cyclohexane-1,3-diol] | insignificant activity | lower than 1.25(OH)2D3 by approximately one log | insignificant activity | lower than 1.25(OH)2D3 by approximately one log | significant reduction in comedone area | dose-dependent reduction in comedone area | 26 ± 3 | –
2 | – | C=C1/C(=C\C=C2/CCC[C@]3(C)[C@@H]([C@H](C)CCCC(C)(C)O)CC[C@@H]23)C[C@@H](O)C[C@@H]1O [1,25(OH)2D3, 1,25-DIHYDROXYVITAMIN D3, reference compound] | – | – | – | – | – | – | – | 187 ± 30
